Measurements published in ChEMBL document CHEMBL1201862, “PubChem BioAssay data set” (2004).
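In this assay, cells in 96-well plates receive the compound at five concentrations for 48 hours. Endpoints are linearly interpolated between the surrounding concentrations. GI50: concentration for 50% inhibition of growth.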 Activity calls are given as the source filed them. Rule as the data show it: active = GI50 up to about 1.1 µM and inactive = higher.

Experiments:
Test in all cases: growth of human tumour cells (NCI), 48 h
NCI-H522 = system: NCI-H522
SK-OV-3 = system: SK-OV-3
DU-145 = system: DU-145
UACC-257 = system: UACC-257
K562 = system: K562
HOP-92 = system: HOP-92
SNB-19 = system: SNB-19
MDA-MB-435 = system: MDA-MB-435
M14 = system: M14
T47D = system: T47D
COLO 205 = system: COLO 205
SR = system: SR
HL-60 = system: HL-60
MDA-N = system: MDA-N
NCI-H226 = system: NCI-H226
786-0 = system: 786-0
UO-31 = system: UO-31
OVCAR-4 = system: OVCAR-4
UACC-62 = system: UACC-62
ACHN = system: ACHN

Row | Structure (SMILES) | GI50 (NCI-H522) | GI50 (SK-OV-3) | GI50 (DU-145) | GI50 (UACC-257) | GI50 (K562) | GI50 (HOP-92) | GI50 (SNB-19) | GI50 (MDA-MB-435) | GI50 (M14) | GI50 (T47D) | GI50 (COLO 205) | GI50 (SR) | GI50 (HL-60) | GI50 (MDA-N) | GI50 (NCI-H226) | GI50 (786-0) | GI50 (UO-31) | GI50 (OVCAR-4) | GI50 (UACC-62) | GI50 (ACHN)
1 | CC(=O)Nc1ccc2c3c(cc(O)c2c1)N(C(=O)CCCCC(=O)N1CC(CCl)c2c1cc(O)c1cc(NC(C)=O)ccc21)CC3CCl (stereo not given) | 0.0575 µM (active) | 0.34 µM (active) | < 0.01 µM (active) | 0.181 µM (active) | 0.284 µM (active) | 0.207 µM (active) | 0.0436 µM (active) | 0.186 µM (active) | 0.083 µM (active) | 0.0129 µM (active) | 0.102 µM (active) | < 0.01 µM (active) | < 0.01 µM (active) | 0.174 µM (active) | 0.0333 µM (active) | 0.0528 µM (active) | 3.53 µM (inactive) | 1.63 µM (inactive) | 0.0154 µM (active) | 0.0308 µM (active)
2 | CC12CCCC(C(=O)O)(C1)[C@H](C(C)(C)C(=O)O)CC2 (stereo not given in full) | > 100 µM (inactive) | > 100 µM (inactive) | > 100 µM (inactive) | > 100 µM (inactive) | > 100 µM (inactive) | > 100 µM (inactive) | > 100 µM (inactive) | > 100 µM (inactive) | > 100 µM (inactive) | > 100 µM (inactive) | > 100 µM (inactive) | > 100 µM (inactive) | > 100 µM (inactive) | > 100 µM (inactive) | > 100 µM (inactive) | > 100 µM (inactive) | > 100 µM (inactive) | > 100 µM (inactive) | > 100 µM (inactive) | > 100 µM (inactive)
3 | Cc1cc2cc3c(cc2c(-c2ccc([N+](=O)[O-])cc2)n1)OCO3 | 14.4 µM (inactive) | 25.6 µM (inactive) | 62.8 µM (inactive) | 80.2 µM (inactive) | 60.8 µM (inactive) | 3.77 µM (inactive) | 21.2 µM (inactive) | 65.9 µM (inactive) | 88.7 µM (inactive) | 34.9 µM (inactive) | 37.7 µM (inactive) | 27.9 µM (inactive) | 57.5 µM (inactive) | 54.2 µM (inactive) | 24.8 µM (inactive) | 23.6 µM (inactive) | 13.5 µM (inactive) | 17.9 µM (inactive) | 20.6 µM (inactive) | 29.9 µM (inactive)
4 | Cc1n(-c2ccccc2)c2c([n+]1Cc1ccc([N+](=O)[O-])cc1)C(=O)c1ccccc1C2=O | 0.579 µM (active) | 4.3 µM (inactive) | 1.85 µM (inactive) | 1.69 µM (inactive) | 1.16 µM (inactive) | 2.3 µM (inactive) | 1.72 µM (inactive) | 1.74 µM (inactive) | 2.59 µM (inactive) | 1.64 µM (inactive) | 1.59 µM (inactive) | 1.72 µM (inactive) | 0.409 µM (active) | 1.77 µM (inactive) | 5.43 µM (inactive) | 4.31 µM (inactive) | 13.1 µM (inactive) | 1.66 µM (inactive) | 2.03 µM (inactive) | 3.72 µM (inactive)
5 | Cc1ccc2c(c1C)C(=O)C1(C2)Cc2ccc3c(c2C1=O)CCC3 (stereo not given) | > 100 µM (inactive) | > 100 µM (inactive) | > 100 µM (inactive) | > 100 µM (inactive) | > 100 µM (inactive) | > 100 µM (inactive) | > 100 µM (inactive) | > 100 µM (inactive) | 2.03 µM (inactive) | > 100 µM (inactive) | > 100 µM (inactive) | > 100 µM (inactive) | > 100 µM (inactive) | > 100 µM (inactive) | > 100 µM (inactive) | > 100 µM (inactive) | > 100 µM (inactive) | > 100 µM (inactive) | > 100 µM (inactive) | > 100 µM (inactive)
6 | Cc1ccccc1OC(C)C(=O)NN1C(=O)CC(=O)NC1=S (stereo not given) | > 100 µM (inactive) | > 100 µM (inactive) | > 100 µM (inactive) | > 100 µM (inactive) | > 100 µM (inactive) | > 100 µM (inactive) | > 100 µM (inactive) | > 100 µM (inactive) | > 100 µM (inactive) | 23.9 µM (inactive) | > 100 µM (inactive) | 49.1 µM (inactive) | > 100 µM (inactive) | > 100 µM (inactive) | 70.5 µM (inactive) | > 100 µM (inactive) | > 100 µM (inactive) | 63.2 µM (inactive) | 80.5 µM (inactive) | 84.5 µM (inactive)
7 | Fc1cc(C2=C[C@H](c3ccc(Cl)cc3)NC(=S)N2)c(Cl)cc1Cl | 34 µM (inactive) | > 100 µM (inactive) | 62.8 µM (inactive) | 31.6 µM (inactive) | 5.62 µM (inactive) | 27.2 µM (inactive) | 76.7 µM (inactive) | 43.9 µM (inactive) | 54.3 µM (inactive) | 19.2 µM (inactive) | 47 µM (inactive) | 40.6 µM (inactive) | 20.6 µM (inactive) | 47.4 µM (inactive) | 88.7 µM (inactive) | 47.9 µM (inactive) | 42.2 µM (inactive) | 35.7 µM (inactive) | 57 µM (inactive) | 37.8 µM (inactive)
8 | COc1cc(-c2ccccc2N)c2cccnc2c1OC | 3.59 µM (inactive) | 9.57 µM (inactive) | 2.89 µM (inactive) | 10.1 µM (inactive) | 4.78 µM (inactive) | 9.53 µM (inactive) | 4.75 µM (inactive) | 8.17 µM (inactive) | 6.28 µM (inactive) | 4.04 µM (inactive) | 6.38 µM (inactive) | 1.67 µM (inactive) | 3.98 µM (inactive) | 6.47 µM (inactive) | 11.6 µM (inactive) | 2.83 µM (inactive) | 3.8 µM (inactive) | 6.3 µM (inactive) | 11.7 µM (inactive) | 3.71 µM (inactive)
9 | O=C(Nc1cccc(-c2cn3ccccc3n2)c1)c1ccncc1 | 23.6 µM (inactive) | 70.8 µM (inactive) | 49.4 µM (inactive) | 29.9 µM (inactive) | 24.6 µM (inactive) | 98.2 µM (inactive) | 99.3 µM (inactive) | 31.9 µM (inactive) | 33.7 µM (inactive) | 19.2 µM (inactive) | 31.3 µM (inactive) | 24 µM (inactive) | 20.1 µM (inactive) | 31.3 µM (inactive) | 56.5 µM (inactive) | 64.4 µM (inactive) | 43.1 µM (inactive) | 34.7 µM (inactive) | 20.9 µM (inactive) | 41.1 µM (inactive)
10 | Cc1ccc([N+](=O)[O-])cc1S(=O)(=O)Nc1ccc(C2=NOC(c3ccccc3O)C2)cc1 (stereo not given) | 1.29 µM (inactive) | 15.3 µM (inactive) | 13.3 µM (inactive) | 5.97 µM (inactive) | 2.25 µM (inactive) | 26.2 µM (inactive) | 3.31 µM (inactive) | 1.01 µM (active) | 2.19 µM (inactive) | 6 µM (inactive) | 3.54 µM (inactive) | 0.577 µM (active) | 2.17 µM (inactive) | 1.56 µM (inactive) | 5.82 µM (inactive) | 8.65 µM (inactive) | < 0.01 µM (active) | 3 µM (inactive) | 2.97 µM (inactive) | 13.1 µM (inactive)
11 | CCn1c2ccccc2c2ccc(C3C4C(=O)N(c5cccc6ccccc56)C(=O)C4ON3C(C(N)=O)c3ccccc3)cc21 (stereo not given) | > 25 µM (inactive) | > 25 µM (inactive) | 14.8 µM (inactive) | 7.73 µM (inactive) | 14.8 µM (inactive) | > 25 µM (inactive) | > 25 µM (inactive) | 10.2 µM (inactive) | 19.1 µM (inactive) | 17.9 µM (inactive) | 10.1 µM (inactive) | 9.12 µM (inactive) | 17.7 µM (inactive) | 9.1 µM (inactive) | 2.76 µM (inactive) | 21.2 µM (inactive) | > 25 µM (inactive) | 14.6 µM (inactive) | 9.04 µM (inactive) | > 25 µM (inactive)
12 | C/C(=N\NC(=[Se])N1CCN(c2ccccn2)CC1)c1ccccn1 | 0.125 µM (active) | 2.75 µM (inactive) | 5.14 µM (inactive) | 0.01 µM (active) | 0.0448 µM (active) | 0.508 µM (active) | 1.14 µM (inactive) | 2.06 µM (inactive) | 0.102 µM (active) | 0.01 µM (active) | 0.01 µM (active) | 0.00622 µM (active) | 0.0432 µM (active) | 2.99 µM (inactive) | 0.912 µM (active) | 0.243 µM (active) | 4.02 µM (inactive) | 0.0933 µM (active) | 1.41 µM (inactive) | 2.37 µM (inactive)
13 | CCCCCCCCCCCCCC(=O)OC(/C=C/C(C)C)C(O)C(O)C(OC)C(=O)NC1CCCCN(C)C1=O (stereo not given) | 8.73 µM (inactive) | 4.49 µM (inactive) | > 10 µM (inactive) | 4.84 µM (inactive) | 2.59 µM (inactive) | 4 µM (inactive) | 1.45 µM (inactive) | 5.25 µM (inactive) | 1.56 µM (inactive) | > 10 µM (inactive) | 1.85 µM (inactive) | 0.773 µM (active) | 1.74 µM (inactive) | > 10 µM (inactive) | 4.85 µM (inactive) | 1.28 µM (inactive) | 1.34 µM (inactive) | 6.12 µM (inactive) | 3.21 µM (inactive) | 4.31 µM (inactive)
14 | Brc1ccc2c(-c3csc(-c4c[nH]c5ccc(Br)cc45)n3)c[nH]c2c1 | 2.11 µM (inactive) | 11.2 µM (inactive) | 3.86 µM (inactive) | 7.94 µM (inactive) | 3.53 µM (inactive) | 3.2 µM (inactive) | 4.09 µM (inactive) | 4.46 µM (inactive) | 3.12 µM (inactive) | 2.94 µM (inactive) | 2.88 µM (inactive) | 3.89 µM (inactive) | 5.22 µM (inactive) | 5.15 µM (inactive) | 3.42 µM (inactive) | 2.31 µM (inactive) | 3.82 µM (inactive) | 6.9 µM (inactive) | 3.18 µM (inactive) | 2.96 µM (inactive)
